Active and inactive are the calls of the source.
Columns and labels:
Rattus norvegicus [1] = assay: Effect on phosphate level in urine in Sprague-Dawley rat at 0.03 mg/kg administered via oral gavage measured after 16 hrs by gravimetric analysis relative to vehicle-treated control; assay type: functional
Rattus norvegicus [2] = assay: Effect on sodium level in urine in Sprague-Dawley rat at 1 mg/kg administered via oral gavage measured after 16 hrs by gravimetric analysis relative to vehicle-treated control; assay type: functional
[3] = Toxicity in Sprague-Dawley rat model of uremia-associated vascular calcification assessed as change in body weight in presence of calcitriol; conditions: in vivo
Rattus norvegicus [4] = assay: Effect on sodium level in urine in Sprague-Dawley rat at 2 mg/kg administered via oral gavage measured after 16 hrs by gravimetric analysis relative to vehicle-treated control; assay type: functional
Rattus norvegicus [5] = assay: Effect on phosphate level in urine in Sprague-Dawley rat at 2 mg/kg administered via oral gavage measured after 16 hrs by gravimetric analysis relative to vehicle-treated control; assay type: functional
Rattus norvegicus [6] = species: Rattus norvegicus; assay: Effect on heart hypertrophy in Sprague-Dawley rat model of uremia-associated vascular calcification assessed as reduction in heart to body weight ratio measured after 27 days in presence of calcitriol; assay type: functional
Rattus norvegicus [7] = assay: Reduction in aortic calcium content in adenine-induced uremic Sprague-Dawley rat model at 5 mg/kg administered with chow diet; assay type: functional, organism-based
Rattus norvegicus [8] = assay: Reduction in urinary calcium mass in rat at 0.3 to 3 mg/kg administered with diet relative to vehicle-control; assay type: functional, organism-based
Rattus norvegicus [9] = assay: Anti-remodeling activity in adenine-induced uremic Sprague-Dawley rat model assessed as decrease in ratio of heart weight to body weight at 2 to 5 mg/kg administered with chow diet; assay type: functional, organism-based
Rattus norvegicus [10] = species: Rattus norvegicus; assay: Reduction in aortic phosphorus content in Sprague-Dawley rat model of uremia-associated vascular calcification measured after 27 days in presence of calcitriol; assay type: functional
Rattus norvegicus [11] = assay: Reduction in aortic phosphorus content in adenine-induced uremic Sprague-Dawley rat model at 5 mg/kg administered with chow diet; assay type: functional, organism-based
Rattus norvegicus [12] = species: Rattus norvegicus; assay: Effect on kidney hypertrophy in Sprague-Dawley rat model of uremia-associated vascular calcification assessed as reduction in kidney to body weight ratio measured after 27 days in presence of calcitriol; assay type: functional
Rattus norvegicus [13] = assay: Anti-remodeling activity in adenine-induced uremic Sprague-Dawley rat model assessed as decrease in ratio of aortic arch weight to body weight at 2 to 5 mg/kg administered with chow diet; assay type: functional, organism-based
Rattus norvegicus [14] = assay: Anti-remodeling activity in adenine-induced uremic Sprague-Dawley rat model assessed as decrease in ratio of kidney weight to body weight at 2 to 5 mg/kg administered with chow diet; assay type: functional, organism-based
Rattus norvegicus [15] = assay: Reduction in stomach calcium content in adenine-induced uremic Sprague-Dawley rat model at 5 mg/kg administered with chow diet; assay type: functional, organism-based
Rattus norvegicus [16] = species: Rattus norvegicus; assay: Reduction in creatinine clearance in Sprague-Dawley rat model of uremia-associated vascular calcification measured after 27 days in presence of calcitriol; assay type: functional
Rattus norvegicus [17] = species: Rattus norvegicus; assay: Reduction in plasma FGF23 level in Sprague-Dawley rat model of uremia-associated vascular calcification measured after 27 days in presence of calcitriol; assay type: functional
Rattus norvegicus [18] = species: Rattus norvegicus; assay: Increase in plasma aldosterone level in Sprague-Dawley rat model of uremia-associated vascular calcification measured after 27 days in presence of calcitriol; assay type: functional
Rattus norvegicus [19] = assay: Reduction in albuminuria in dietary salt-induced Sprague-Dawley rat partial ablation model of chronic kidney disease at 0.3 to 3 mg/kg administered with chow diet measured after 7 days; assay type: functional, organism-based
Rattus norvegicus [20] = assay: Antihypertrophic activity in dietary salt-induced Sprague-Dawley rat partial ablation model of chronic kidney disease assessed as change in kidney morphology at 0.3 to 3 mg/kg administered with chow diet measured after 7 days; assay type: functional, organism-based
Rattus norvegicus [21] = species: Rattus norvegicus; assay: Increase in plasma albumin level in Sprague-Dawley rat model of uremia-associated vascular calcification measured after 27 days in presence of calcitriol; assay type: functional
Rattus norvegicus [22] = assay: Anti-remodeling activity in adenine-induced uremic Sprague-Dawley rat model assessed as decrease in ratio of stomach weight to body weight at 2 to 5 mg/kg administered with chow diet; assay type: functional, organism-based
Rattus norvegicus [23] = assay: Effect on urinary excretion of phosphorus in dietary salt-induced Sprague-Dawley rat partial ablation model of chronic kidney disease at 0.3 to 3 mg/kg administered with chow diet measured after 7 days; assay type: functional, organism-based
Rattus norvegicus [24] = species: Rattus norvegicus; assay: Increase in plasma calcium level in Sprague-Dawley rat model of uremia-associated vascular calcification measured after 27 days in presence of calcitriol; assay type: functional
Rattus norvegicus [25] = assay: Reduction in serum phosphorus level in adenine-induced uremic Sprague-Dawley rat model at 2 to 5 mg/kg administered with chow diet; assay type: functional, organism-based
Rattus norvegicus [26] = assay: Reduction in serum creatinine level in adenine-induced uremic Sprague-Dawley rat model at 2 to 5 mg/kg administered with chow diet; assay type: functional, organism-based
Rattus norvegicus [27] = assay: Reduction in urinary phosphorus mass in rat at 0.3 to 3 mg/kg administered with diet relative to vehicle-control; assay type: functional, organism-based
[28] = Reduction in fluid overload in dietary salt-induced Sprague-Dawley rat partial ablation model of chronic kidney disease at 0.3 to 3 mg/kg administered with chow diet measured after 7 days; assay type: functional, organism-based
Rattus norvegicus [29] = assay: Antihypertrophic activity in dietary salt-induced Sprague-Dawley rat partial ablation model of chronic kidney disease assessed as change in heart morphology at 0.3 to 3 mg/kg administered with chow diet measured after 7 days; assay type: functional, organism-based
Rattus norvegicus [30] = species: Rattus norvegicus; assay: Reduction in stomach calcium content in Sprague-Dawley rat model of uremia-associated vascular calcification measured after 27 days in presence of calcitriol; assay type: functional
Rattus norvegicus [31] = species: Rattus norvegicus; assay: Reduction in stomach phosphorus content in Sprague-Dawley rat model of uremia-associated vascular calcification measured after 27 days in presence of calcitriol; assay type: functional
Rattus norvegicus [32] = species: Rattus norvegicus; assay: Reduction in aortic calcium content in Sprague-Dawley rat model of uremia-associated vascular calcification measured after 27 days in presence of calcitriol; assay type: functional
Rattus norvegicus [33] = assay: Reduction in stomach phosphorus content in adenine-induced uremic Sprague-Dawley rat model at 5 mg/kg administered with chow diet; assay type: functional, organism-based
Rattus norvegicus [34] = species: Rattus norvegicus; assay: Reduction in plasma creatinine level in Sprague-Dawley rat model of uremia-associated vascular calcification measured after 27 days in presence of calcitriol; assay type: functional
Rattus norvegicus [35] = species: Rattus norvegicus; assay: Reduction in plasma phosphorus level in Sprague-Dawley rat model of uremia-associated vascular calcification measured after 27 days in presence of calcitriol; assay type: functional
Rattus norvegicus [36] = assay: Antihypertensive activity in dietary salt-induced Sprague-Dawley rat partial ablation model of chronic kidney disease assessed as reduction in blood pressure at 0.3 to 3 mg/kg administered with chow diet measured after 7 days; assay type: functional, organism-based

Measured: Activity

CN1Cc2c(Cl)cc(Cl)cc2[C@H](c2cccc(S(=O)(=O)NCCOCCOCCNC(=O)NCCCCNC(=O)NCCOCCOCCNS(=O)(=O)c3cccc([C@@H]4CN(C)Cc5c(Cl)cc(Cl)cc54)c3)c2)C1 [TENAPANOR]
80%: Rattus norvegicus [1]

CN1Cc2c(Cl)cc(Cl)cc2[C@H](c2cccc(S(=O)(=O)NCCOCCOCCNC(=O)NCCCCNC(=O)NCCOCCOCCNS(=O)(=O)c3cccc([C@@H]4CN(C)Cc5c(Cl)cc(Cl)cc54)c3)c2)C1.Cl.Cl [TENAPANOR HYDROCHLORIDE]
11%: Rattus norvegicus [2]
Non-Toxic: [3]

CN1Cc2c(Cl)cc(Cl)cc2[C@H](c2cccc(S(=O)(=O)NCCOCCOCCNC(=O)CCC(CCC(=O)NCCOCCOCCNS(=O)(=O)c3cccc([C@@H]4CN(C)Cc5c(Cl)cc(Cl)cc54)c3)(CCC(=O)NCCOCCOCCNS(=O)(=O)c3cccc([C@@H]4CN(C)Cc5c(Cl)cc(Cl)cc54)c3)NC(=O)NCP(=O)(O)O)c2)C1
130%: Rattus norvegicus [4]
50%: Rattus norvegicus [5]

CN1Cc2c(Cl)cc(Cl)cc2[C@H](c2cccc(S(=O)(=O)NCCOCCOCCNC(=O)NCCCCNC(=O)NCCOCCOCCNS(=O)(=O)c3cccc([C@@H]4CN(C)Cc5c(Cl)cc(Cl)cc54)c3)c2)C1
not listed: Rattus norvegicus [1] | Rattus norvegicus [2] | [3] | Rattus norvegicus [4] | Rattus norvegicus [5]
active: all other assays above

From ChEMBL document CHEMBL3880442, “NHE3-binding compounds and methods for inhibiting phosphate transport” (2014)
